Source: patent US7767659B2, “Synthesis of naturally occurring ecteinascidins and related compounds” (Pharma Mar, S.A., priority 2002, dated 2010)
Like-named read-outs stand apart in the source and are kept apart here.

What was measured:
LoVo = assay: cells; conditions: Homo sapiens, LoVo, 48 h
Method in brief: (§1)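 Colorimetric SRB read (490 nm) on triplicate wells after 48 h at 37 °C, 5% CO2. Dose range 10 to 10^−8 μg/ml; 5×10^3 cells/well pre-attached 18 h.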

HT-29 = assay: cells; conditions: Homo sapiens, HT-29, 48 h
Method in brief: as §1

A-549 = assay: cells; conditions: Homo sapiens, A549, 48 h
Method in brief: as §1

LNCaP = assay: Inhibition of cells growth by colorimetric assay (SRB); conditions: Homo sapiens, LNCaP, 48 h
Method in brief: as §1

SK-MEL-28 = assay: as above; conditions: Homo sapiens, SK-MEL-28, 48 h
Method in brief: as §1

IGROV-1 = assay: as above; conditions: Homo sapiens, IGROV-1, 48 h
Method in brief: as §1

HeLa = assay: as above; conditions: Homo sapiens, HeLa, 48 h
Method in brief: as §1

HeLa-APL = assay: as above; conditions: Homo sapiens, 48 h
Method in brief: as §1

K-562 = assay: as above; conditions: Homo sapiens, K562, 48 h
Method in brief: as §1

DU-145 = assay: as above; conditions: Homo sapiens, DU-145, 48 h
Method in brief: as §1

SK-BR-3 = assay: as above; conditions: Homo sapiens, SK-BR-3, 48 h
Method in brief: as §1

LoVo-Dox = assay: as above; conditions: Homo sapiens, 48 h
Method in brief: as §1

PANC-1 = assay: as above; conditions: Homo sapiens, PANC-1, 48 h
Method in brief: as §1

IGROV-ET = assay: as above; conditions: Homo sapiens, 48 h
Method in brief: as §1

`CCCCCCCCCCCCCCCC(=O)NC1CS[C@@H]2c3c(OC(C)=O)c(C)c4c(c3[C@H](COC1=O)N1C2[C@@H]2N[C@@H](Cc3cc(C)c(OC)c(O)c32)[C@@H]1C#N)OCO4` (stereo partly drawn) [compound 32] was tested, and the GI50 (LoVo; read-out: GI50 LOVO) was 1890 nM, the CC50 (LoVo; read-out: LC50 LOVO) was 7390 nM and the IC (TGI) (LoVo; read-out: TGI LOVO) was 3760 nM. The GI50 (HT-29; read-out: GI50 HT29) was 3480 nM, the CC50 (HT-29; read-out: LC50 HT29) was 10700 nM and the IC (TGI) (HT-29; read-out: TGI HT29) was 6100 nM. It also gave a GI50 (A-549; read-out: GI50 A549) of 2380 nM, a CC50 (A-549; read-out: LC50 A549) of 7700 nM and an IC (TGI) (A-549; read-out: TGI A549) of 4290 nM. For the same compound, the GI50 (LNCaP; read-out: GI50 LNCAP) was 1770 nM, the CC50 (LNCaP; read-out: LC50 LNCAP) was 6410 nM and the IC (TGI) (LNCaP; read-out: TGI LNCAP) was 3360 nM. The GI50 (SK-MEL-28; read-out: GI50 MEL-28) was 2410 nM, the CC50 (SK-MEL-28; read-out: LC50 MEL-28) was 7130 nM and the IC (TGI) (SK-MEL-28; read-out: TGI MEL-28) was 4140 nM. It also gave a GI50 (IGROV-1; read-out: GI50 IGROV) of 1970 nM, a CC50 (IGROV-1; read-out: LC50 IGROV) of 7740 nM and an IC (TGI) (IGROV-1; read-out: TGI IGROV) of 3910 nM. For the same compound, the GI50 (HeLa; read-out: GI50 HELA) was 253 nM, the CC50 (HeLa; read-out: LC50 HELA) was 689 nM and the IC (TGI) (HeLa; read-out: TGI HELA) was 418 nM. The GI50 (HeLa-APL; read-out: GI50 HELA-APL) was 33.9 nM, the CC50 (HeLa-APL; read-out: LC50 HELA-APL) was 108 nM and the IC (TGI) (HeLa-APL; read-out: TGI HELA-APL) was 60.5 nM. The GI50 (K-562; read-out: GI50 K562) was 694 nM, the CC50 (K-562; read-out: LC50 K562) was 6810 nM and the IC (TGI) (K-562; read-out: TGI K562) was 2200 nM. For the same compound, the GI50 (DU-145; read-out: GI50 DU145) was 2480 nM, the CC50 (DU-145; read-out: LC50 DU145) was 9390 nM and the IC (TGI) (DU-145; read-out: TGI DU145) was 4830 nM. It also gave a GI50 (SK-BR-3; read-out: GI50 SK-BR3) of 263 nM, a CC50 (SK-BR-3; read-out: LC50 SK-BR3) of 7520 nM and an IC (TGI) (SK-BR-3; read-out: TGI SK-BR3) of 1660 nM. The GI50 (LoVo-Dox; read-out: GI50 LOVO-DOX) was 802 nM, the CC50 (LoVo-Dox; read-out: LC50 LOVO-DOX) was 6760 nM and the IC (TGI) (LoVo-Dox; read-out: TGI LOVO-DOX) was 2480 nM. It also gave a GI50 (PANC-1; read-out: GI50 PANC-1) of 2560 nM, a CC50 (PANC-1; read-out: LC50 PANC-1) of 8790 nM and an IC (TGI) (PANC-1; read-out: TGI PANC-1) of 4750 nM. For the same compound, the GI50 (IGROV-ET; read-out: GI50 IGROV-ET) was 2850 nM, the CC50 (IGROV-ET; read-out: LC50 IGROV-ET) was 9670 nM and the IC (TGI) (IGROV-ET; read-out: TGI IGROV-ET) was 5240 nM.

With `CCCCCCCC(=O)Oc1c(C)c2c(c3c1[C@H]1SC[C@]4(NCCc5cc(O)c(OC)cc54)C(=O)OC[C@@H]3N3C1[C@@H]1N[C@@H](Cc4cc(C)c(OC)c(O)c41)[C@@H]3C#N)OCO2` (stereo partly drawn) [compound 52] the GI50 (LoVo; read-out: LOVO GI50) was 9.17 nM, the CC50 (LoVo; read-out: LOVO LC50) was 85.7 nM and the IC (TGI) (LoVo; read-out: LOVO TGI) was 29.6 nM. It also gave a GI50 (HT-29; read-out: HT29 GI50) of 6.14 nM, a CC50 (HT-29; read-out: HT29 LC50) of 7780 nM and an IC (TGI) (HT-29; read-out: HT29 TGI) of 1250 nM. It also gave a GI50 (A-549; read-out: A549 GI50) of 8.01 nM, a CC50 (A-549; read-out: A549 LC50) of 973 nM and an IC (TGI) (A-549; read-out: A549 TGI) of 57.8 nM. For the same compound, the GI50 (LNCaP; read-out: LNCAP GI50) was 2.39 nM, the CC50 (LNCaP; read-out: LNCAP LC50) was 9.06 nM and the IC (TGI) (LNCaP; read-out: LNCAP TGI) was 4.66 nM. It also gave a GI50 (SK-MEL-28; read-out: MEL-28 GI50) of 4.07 nM, a CC50 (SK-MEL-28; read-out: MEL-28 LC50) of 52.7 nM and an IC (TGI) (SK-MEL-28; read-out: MEL-28 TGI) of 15.5 nM. For the same compound, the GI50 (IGROV-1; read-out: IGROV GI50) was 7.32 nM, the CC50 (IGROV-1; read-out: IGROV LC50) was 3060 nM and the IC (TGI) (IGROV-1; read-out: IGROV TGI) was 43.3 nM. For the same compound, the GI50 (HeLa; read-out: HELA GI50) was 5.98 nM, the CC50 (HeLa; read-out: HELA LC50) was 1850 nM and the IC (TGI) (HeLa; read-out: HELA TGI) was 22.5 nM. It also gave a GI50 (HeLa-APL; read-out: HELA-APL GI50) of 7.05 nM, a CC50 (HeLa-APL; read-out: HELA-APL LC50) of 92.3 nM and an IC (TGI) (HeLa-APL; read-out: HELA-APL TGI) of 21.4 nM. It also gave a GI50 (K-562; read-out: K562 GI50) of 4.51 nM, a CC50 (K-562; read-out: K562 LC50) of 80.6 nM and an IC (TGI) (K-562; read-out: K562 TGI) of 21.3 nM. The GI50 (DU-145; read-out: DU145 GI50) was 4.92 nM, the CC50 (DU-145; read-out: DU145 LC50) was 5140 nM and the IC (TGI) (DU-145; read-out: DU145 TGI) was 19.3 nM. For the same compound, the GI50 (SK-BR-3; read-out: SK-BR3 GI50) was 6.18 nM, the CC50 (SK-BR-3; read-out: SK-BR3 LC50) was 11900 nM and the IC (TGI) (SK-BR-3; read-out: SK-BR3 TGI) was 258 nM. It also gave a GI50 (LoVo-Dox; read-out: LOVO-DOX GI50) of 273 nM, a CC50 (LoVo-Dox; read-out: LOVO-DOX LC50) of 11900 nM and an IC (TGI) (LoVo-Dox; read-out: LOVO-DOX TGI) of 11900 nM. It also gave a GI50 (PANC-1; read-out: PANC-1 GI50) of 21.5 nM, a CC50 (PANC-1; read-out: PANC-1 LC50) of 610 nM and an IC (TGI) (PANC-1; read-out: PANC-1 TGI) of 62.4 nM. The GI50 (IGROV-ET; read-out: IGROV-ET GI50) was 39.5 nM, the CC50 (IGROV-ET; read-out: IGROV-ET LC50) was 8530 nM and the IC (TGI) (IGROV-ET; read-out: IGROV-ET TGI) was 119 nM.
